In ChEMBL document CHEMBL5634115, “Exploring novel anticancer pyrazole benzenesulfonamides featuring tail approach strategy as carbonic anhydrase inhibitors” (Eur J Med Chem, 2023):

Columns and labels:
Test in all cases: cells
[1] = system: M14; type: functional; conditions: Homo sapiens, time 48 hrs
Description: Cytostatic activity against human M14 cells assessed as total growth inhibition measured after 48 hrs by sulforhodamine B assay

[2] = system: SNB-75; type: functional; conditions: Homo sapiens, time 48 hrs
Description: Cytostatic activity against human SNB-75 cells assessed as total growth inhibition measured after 48 hrs by sulforhodamine B assay

[3] = system: SNB-75; conditions: Homo sapiens, SNB-75, 48 h, read-out: LC50
Description: Cytotoxicity activity against human SNB-75 cells assessed as reduction in cell growth measured after 48 hrs by sulforhodamine B assay

[4] = system: COLO 205; conditions: Homo sapiens, COLO 205, 48 h, read-out: LC50
Description: Cytotoxicity activity against human COLO 205 cells assessed as reduction in cell growth measured after 48 hrs by sulforhodamine B assay

[5] = system: SF-268; conditions: Homo sapiens, SF-268, 48 h, read-out: LC50
Description: Cytotoxicity activity against human SF-268 cells assessed as reduction in cell growth measured after 48 hrs by sulforhodamine B assay

[6] = system: SF-539; type: functional; conditions: Homo sapiens, time 48 hrs
Description: Growth inhibition of human SF-539 cells measured after 48 hrs by sulforhodamine B assay

[7] = system: A498; type: functional; conditions: Homo sapiens, time 48 hrs
Description: Cytostatic activity against human A498 cells assessed as total growth inhibition measured after 48 hrs by sulforhodamine B assay

[8] = system: SR; type: functional; conditions: Homo sapiens, time 48 hrs
Description: Cytostatic activity against human SR cells assessed as total growth inhibition measured after 48 hrs by sulforhodamine B assay

[9] = system: OVCAR-5; type: functional; conditions: Homo sapiens, time 48 hrs
Description: Growth inhibition of human OVCAR-5 cells measured after 48 hrs by sulforhodamine B assay

[10] = system: DU-145; conditions: Homo sapiens, DU-145, 48 h, read-out: LC50
Description: Cytotoxicity activity against human DU-145 cells assessed as reduction in cell growth measured after 48 hrs by sulforhodamine B assay

[11] = system: SF-268; type: functional; conditions: Homo sapiens, time 48 hrs
Description: Growth inhibition of human SF-268 cells measured after 48 hrs by sulforhodamine B assay

[12] = system: T47D; type: functional; conditions: Homo sapiens, time 48 hrs
Description: Cytostatic activity against human T47D cells assessed as total growth inhibition measured after 48 hrs by sulforhodamine B assay

[13] = system: LOX IMVI; type: functional; conditions: Homo sapiens, time 48 hrs
Description: Cytostatic activity against human LOX IMVI cells assessed as total growth inhibition measured after 48 hrs by sulforhodamine B assay

[14] = system: MDA-MB-231; type: functional; conditions: Homo sapiens, time 48 hrs
Description: Cytostatic activity against human MDA-MB-231 cells assessed as total growth inhibition measured after 48 hrs by sulforhodamine B assay

[15] = system: NCI-H522; type: functional; conditions: Homo sapiens, time 48 hrs
Description: Growth inhibition of human NCI-H522 cells measured after 48 hrs by sulforhodamine B assay

[16] = system: SN12C; conditions: Homo sapiens, 48 h, read-out: LC50
Description: Cytotoxicity activity against human SN12C cells assessed as reduction in cell growth measured after 48 hrs by sulforhodamine B assay

[17] = system: NCI/ADR-RES; type: functional; conditions: Homo sapiens, time 48 hrs
Description: Cytostatic activity against human NCI/ADR-RES cells assessed as total growth inhibition measured after 48 hrs by sulforhodamine B assay

[18] = system: MDA-MB-468; type: functional; conditions: Homo sapiens, time 48 hrs
Description: Cytostatic activity against human MDA-MB-468 cells assessed as total growth inhibition measured after 48 hrs by sulforhodamine B assay

[19] = system: PC-3; conditions: Homo sapiens, PC-3, 48 h, read-out: LC50
Description: Cytotoxicity activity against human PC-3 cells assessed as reduction in cell growth measured after 48 hrs by sulforhodamine B assay

[20] = system: NCI-H322M; conditions: Homo sapiens, 48 h, read-out: LC50
Description: Cytotoxicity activity against human NCI-H322M cells assessed as reduction in cell growth measured after 48 hrs by sulforhodamine B assay

[21] = system: NCI-H322M; type: functional; conditions: Homo sapiens, time 48 hrs
Description: Cytostatic activity against human NCI-H322M cells assessed as total growth inhibition measured after 48 hrs by sulforhodamine B assay

[22] = system: COLO 205; type: functional; conditions: Homo sapiens, time 48 hrs
Description: Growth inhibition of human COLO 205 cells measured after 48 hrs by sulforhodamine B assay

[23] = system: SK-MEL-28; type: functional; conditions: Homo sapiens, time 48 hrs
Description: Cytostatic activity against human SK-MEL-28 cells assessed as total growth inhibition measured after 48 hrs by sulforhodamine B assay

[24] = system: HCT-15; conditions: Homo sapiens, HCT-15, 48 h, read-out: LC50
Description: Cytotoxicity activity against human HCT-15 cells assessed as reduction in cell growth measured after 48 hrs by sulforhodamine B assay

[25] = system: MDA-MB-435; type: functional; conditions: Homo sapiens, time 48 hrs
Description: Growth inhibition of human MDA-MB-435 cells measured after 48 hrs by sulforhodamine B assay

[26] = system: HCC 2998; type: functional; conditions: Homo sapiens, time 48 hrs
Description: Growth inhibition of human HCC 2998 cells measured after 48 hrs by sulforhodamine B assay

[27] = system: ACHN; type: functional; conditions: Homo sapiens, time 48 hrs
Description: Growth inhibition of human ACHN cells measured after 48 hrs by sulforhodamine B assay

[28] = system: A549; conditions: Homo sapiens, A549, 48 h, read-out: LC50
Description: Cytotoxicity activity against human A549 cells assessed as reduction in cell growth measured after 48 hrs by sulforhodamine B assay

[29] = system: HOP-92; type: functional; conditions: Homo sapiens, time 48 hrs
Description: Growth inhibition of human HOP-92 cells measured after 48 hrs by sulforhodamine B assay

[30] = system: K562; conditions: Homo sapiens, K562, 48 h, read-out: LC50
Description: Cytotoxicity activity against human K562 cells assessed as reduction in cell growth measured after 48 hrs by sulforhodamine B assay

[31] = system: NCI-H460; type: functional; conditions: Homo sapiens, time 48 hrs
Description: Cytostatic activity against human NCI-H460 cells assessed as total growth inhibition measured after 48 hrs by sulforhodamine B assay

[32] = system: T47D; type: functional; conditions: Homo sapiens, time 48 hrs; remark: listed apart in the source
Description: Growth inhibition of human T47D cells measured after 48 hrs by sulforhodamine B assay

[33] = system: HT-29; conditions: Homo sapiens, HT-29, 48 h, read-out: LC50
Description: Cytotoxicity activity against human HT-29 cells assessed as reduction in cell growth measured after 48 hrs by sulforhodamine B assay

[34] = system: OVCAR-8; type: functional; conditions: Homo sapiens, time 48 hrs
Description: Cytostatic activity against human OVCAR-8 cells assessed as total growth inhibition measured after 48 hrs by sulforhodamine B assay

[35] = system: HCT-15; type: functional; conditions: Homo sapiens, time 48 hrs
Description: Cytostatic activity against human HCT-15 cells assessed as total growth inhibition measured after 48 hrs by sulforhodamine B assay

[36] = system: HCT-116; type: functional; conditions: Homo sapiens, time 48 hrs
Description: Growth inhibition of human HCT-116 cells measured after 48 hrs by sulforhodamine B assay

[37] = system: RPMI-8226; conditions: Homo sapiens, RPMI-8226, 48 h, read-out: LC50
Description: Cytotoxicity activity against human RPMI-8226 cells assessed as reduction in cell growth measured after 48 hrs by sulforhodamine B assay

[38] = system: HL-60(TB); type: functional; conditions: Homo sapiens, time 48 hrs
Description: Cytostatic activity against human HL-60(TB) cells assessed as total growth inhibition measured after 48 hrs by sulforhodamine B assay

[39] = system: A498; type: functional; conditions: Homo sapiens, time 48 hrs; remark: listed apart in the source
Description: Growth inhibition of human A498 cells measured after 48 hrs by sulforhodamine B assay

[40] = system: TK-10; type: functional; conditions: Homo sapiens, time 48 hrs
Description: Growth inhibition of human TK-10 cells measured after 48 hrs by sulforhodamine B assay

[41] = system: SR; conditions: Homo sapiens, 48 h, read-out: LC50
Description: Cytotoxicity activity against human SR cells assessed as reduction in cell growth measured after 48 hrs by sulforhodamine B assay

[42] = system: BT-549; conditions: Homo sapiens, BT-549, 48 h, read-out: LC50
Description: Cytotoxicity activity against human BT-549 cells assessed as reduction in cell growth measured after 48 hrs by sulforhodamine B assay

[43] = system: NCI-H23; type: functional; conditions: Homo sapiens, time 48 hrs
Description: Cytostatic activity against human NCI-H23 cells assessed as total growth inhibition measured after 48 hrs by sulforhodamine B assay

[44] = system: NCI-H23; type: functional; conditions: Homo sapiens, time 48 hrs; remark: listed apart in the source
Description: Growth inhibition of human NCI-H23 cells measured after 48 hrs by sulforhodamine B assay

[45] = system: OVCAR-8; conditions: Homo sapiens, OVCAR-8, 48 h, read-out: LC50
Description: Cytotoxicity activity against human OVCAR-8 cells assessed as reduction in cell growth measured after 48 hrs by sulforhodamine B assay

[46] = system: SW-620; conditions: Homo sapiens, SW-620, 48 h, read-out: LC50
Description: Cytotoxicity activity against human SW620 cells assessed as reduction in cell growth measured after 48 hrs by sulforhodamine B assay

[47] = system: RPMI-8226; type: functional; conditions: Homo sapiens, time 48 hrs
Description: Growth inhibition of human RPMI-8226 cells measured after 48 hrs by sulforhodamine B assay

[48] = system: SW-620; type: functional; conditions: Homo sapiens, time 48 hrs
Description: Growth inhibition of human SW620 cells measured after 48 hrs by sulforhodamine B assay

[49] = system: SK-MEL-28; conditions: Homo sapiens, SK-MEL-28, 48 h, read-out: LC50
Description: Cytotoxicity activity against human SK-MEL-28 cells assessed as reduction in cell growth measured after 48 hrs by sulforhodamine B assay

[50] = system: NCI-H522; type: functional; conditions: Homo sapiens, time 48 hrs; remark: listed apart in the source
Description: Cytostatic activity against human NCI-H522 cells assessed as total growth inhibition measured after 48 hrs by sulforhodamine B assay

[51] = system: MCF7; type: functional; conditions: Homo sapiens, time 48 hrs
Description: Growth inhibition of human MCF7 cells measured after 48 hrs by sulforhodamine B assay

[52] = system: U-251; conditions: Homo sapiens, U-251, 48 h, read-out: LC50
Description: Cytotoxicity activity against human U-251 cells assessed as reduction in cell growth measured after 48 hrs by sulforhodamine B assay

[53] = system: NCI-H322M; type: functional; conditions: Homo sapiens, time 48 hrs; remark: listed apart in the source
Description: Growth inhibition of human NCI-H322M cells measured after 48 hrs by sulforhodamine B assay

[54] = system: UACC-62; conditions: Homo sapiens, UACC-62, 48 h, read-out: LC50
Description: Cytotoxicity activity against human UACC-62 cells assessed as reduction in cell growth measured after 48 hrs by sulforhodamine B assay

[55] = system: SK-MEL-2; type: functional; conditions: Homo sapiens, time 48 hrs
Description: Growth inhibition of human SK-MEL-2 cells measured after 48 hrs by sulforhodamine B assay

[56] = system: CAKI-1; type: functional; conditions: Homo sapiens, time 48 hrs
Description: Cytostatic activity against human CAKI-1 cells assessed as total growth inhibition measured after 48 hrs by sulforhodamine B assay

[57] = system: SR; type: functional; conditions: Homo sapiens, time 48 hrs; remark: listed apart in the source
Description: Growth inhibition of human SR cells measured after 48 hrs by sulforhodamine B assay

[58] = system: MDA-MB-468; type: functional; conditions: Homo sapiens, time 48 hrs; remark: listed apart in the source
Description: Growth inhibition of human MDA-MB-468 cells measured after 48 hrs by sulforhodamine B assay

[59] = system: SNB-19; type: functional; conditions: Homo sapiens, time 48 hrs
Description: Growth inhibition of human SNB-19 cells measured after 48 hrs by sulforhodamine B assay

[60] = system: OVCAR-3; type: functional; conditions: Homo sapiens, time 48 hrs
Description: Growth inhibition of human OVCAR-3 cells measured after 48 hrs by sulforhodamine B assay

[61] = system: UO-31; type: functional; conditions: Homo sapiens, time 48 hrs
Description: Growth inhibition of human UO-31 cells measured after 48 hrs by sulforhodamine B assay

[62] = system: ACHN; type: functional; conditions: Homo sapiens, time 48 hrs; remark: listed apart in the source
Description: Cytostatic activity against human ACHN cells assessed as total growth inhibition measured after 48 hrs by sulforhodamine B assay

## CCOC(=O)c1ccc(N/N=C/c2cn(-c3ccc(S(N)(=O)=O)cc3)nc2-c2ccc(C)cc2)cc1
[1]
  TGI: 3.57 µM
[2]
  TGI: 46.4 µM
[3]
  CC50: > 100 µM
[4]
  CC50: > 100 µM
[5]
  CC50: > 100 µM
[6]
  GI50: 2.55 µM
[7]
  TGI: 31.8 µM
[8]
  TGI: 2.65 µM
[9]
  GI50: 4.29 µM
[10]
  CC50: > 100 µM
[11]
  GI50: 4.07 µM
[12]
  TGI: > 100 µM
[13]
  TGI: 3.15 µM
[14]
  TGI: 9.13 µM
[15]
  GI50: 2.07 µM
[16]
  CC50: > 100 µM
[17]
  TGI: 10.9 µM
[18]
  TGI: 16 µM
[19]
  CC50: > 100 µM
[20]
  CC50: > 100 µM
[21]
  TGI: 5.38 µM
[22]
  GI50: 11.2 µM
[23]
  TGI: 19.6 µM
[24]
  CC50: 9.53 µM
[25]
  GI50: 2.87 µM
[26]
  GI50: 2.05 µM
[27]
  GI50: 3.04 µM
[28]
  CC50: > 100 µM
[29]
  GI50: 2.79 µM
[30]
  CC50: > 100 µM
[31]
  TGI: 2.43 µM
[32]
  GI50: 3.89 µM
[33]
  CC50: > 100 µM
[34]
  TGI: > 100 µM
[35]
  TGI: 4.23 µM
[36]
  GI50: 3.11 µM
[37]
  CC50: > 100 µM
[38]
  TGI: 14.1 µM
[39]
  GI50: 7.62 µM
[40]
  GI50: 24.5 µM
[41]
  CC50: > 100 µM
[42]
  CC50: > 100 µM
[43]
  TGI: 3.26 µM
[44]
  GI50: 3.26 µM
[45]
  CC50: > 100 µM
[46]
  CC50: > 100 µM
[47]
  GI50: 3.24 µM
[48]
  GI50: 3.66 µM
[49]
  CC50: 65.8 µM
[50]
  TGI: 2.07 µM
[51]
  GI50: 2.44 µM
[52]
  CC50: > 100 µM
[53]
  GI50: 5.38 µM
[54]
  CC50: 59.8 µM
[55]
  GI50: 11.8 µM
[56]
  TGI: 11.7 µM
[57]
  GI50: 2.65 µM
[58]
  GI50: 3.51 µM
[59]
  GI50: 4.1 µM
[60]
  GI50: 2.57 µM
[61]
  GI50: 2.71 µM
[62]
  TGI: 24.3 µM
